Source: patent US20130303539A1, “COMPOUNDS WITH TRPV4 ACTIVITY, COMPOSITIONS AND ASSOCIATED METHODS THEREOF” (priority 2012, published 2013)

Assays:
[1] = tested on: MB mouse model of glaucoma; assay: IOP in microbead (MB) mouse model of glaucoma, intraperitoneal dosing; format: in vivo
Description: FIG. 2 confirms that the mouse model for glaucoma causes RGC degeneration. Specifically, microbeads (MBs) were injected into the anterior chamber of a mouse eye. The MBs increase intraocular IOP above 15 mm Hg by blocking outflow of the aqueous humor within the anterior chamber of the eye. MBs were reinjected as needed to maintain a high IOP, typically one injection every two weeks. Contralateral eyes were injected intraocularly with the vehicle PBS (phosphate buffered saline) as controls. […] IOP levels were measured at least twice weekly before and after intraocular injections. After injections, mice recovered for 48 hours before IOP measurements resumed. […] Retinas were then removed and processed for immunohistochemistry (IHC). […] After rinsing with PBS, PBS containing the secondary antibody conjugated to fluorophores (Alexa 488 or Alexa 594; […] Retinas were rinsed and flat-mounted on microscope slides. Mounting medium was added and retinal wholemounts were coverslipped. The density of RGCs was imaged with a confocal microscope (Zeiss LSM 510) and quantified by counting NeuN-, CFP- and/or Tuj-1—labeled somata in the RGC layer of the retinal wholemount preparation. Injection of microbeads induces RGC degeneration after 8 weeks but not after 4 weeks. […] Mice were sedated with IP injection of Avertin with final amount calculated by weight (e.g., 0.5 ml for 21-24 g animals). […]

Müller cells = assay: Arachidonic acid-induced [Ca2+]i in Müller cells; format: cell-based; conditions: 1 μM, against 10 μM arachidonic acid
Description: This response is blocked by Compound 1 (1 μM).

retinal ganglion cell = assay: Pressure-induced inward currents, High-Speed Pressure Clamp, voltage-clamped retinal ganglion cell; format: cell-based; conditions: pressure steps from 10 mm Hg to 50 mm Hg
Description: The cell was voltage clamped and stimulated with the High-Speed Pressure Clamp method, as detailed by Besch et al (Pflugers Arch. 2002 October; 445(1):161-6). This method consists of a specialized headstage coupled to a piezo element in the pressure/vacuum control valve. By balancing the access of pressure to the patch pipette, the device generates rapid and reproducible pressure steps of >±200 mm Hg. Channel activity is recorded in the cell-attached mode or the membrane is “zapped” into the outside-out configuration.

For `Cc1c(C(=O)Nc2cccc(C(F)(F)F)c2)cc(-c2ccccc2)n1CCCN1CCOCC1` [Compound 1, N-(3-(trifluoromethyl)phenyl)-2-methyl-1-(3-morpholinopropyl)-5-phenyl-1H-pyrrole-3-carboxamide], the IOP ([1]; 10 mg/kg body weight intraperitoneally, MB-injected eyes vs PBS-injected eyes) was “blocked the increase in IOP to the level observed in control mice”, the “average IOP, cumulative effectiveness” value ([1]; daily IP injections, cumulative data from 3 independent experiments) was “blocks MB-induced increases in IOP” and the “block of arachidonic acid-induced [Ca2+]i increase” value (Müller cells) was “blocked”. For the same molecule, the pressure-induced inward currents (retinal ganglion cell) was “reversibly antagonized”.
